Assay results from PMC6429710, “Structure–activity relationships in a series of antiplasmodial thieno[2,3-b]pyridines” (Malaria Journal, 2019).
≈ marks a conversion by molar mass, not a printed value. Read-outs that look alike come from different tables or passages of the source.

What was measured:
[1] = system: asexual erythrocytic stages of transgenic NF54-luc P. falciparum; experiment: Luciferase-based viability screening for antiplasmodial activity; format: cell-based, Plasmodium falciparum; settings: for % inhibition ± SD, PfNF54-Luc at 3 µM: 3 µM test compound, luciferase readout; for IC50: read-out: IC50 [µM], PfNF54-Luc
Description: For the luciferase-based viability assays, asexual erythrocytic stages of transgenic NF54-luc P. falciparum were used. These parasites constitutively express high luciferase levels. The parasites were cultured as described previously. Parasite cultures with parasitaemia of 0.5–1% were dispensed in triplicate into white 96-well flat-bottom plates (each well contains 250 µL) (NUNC, Roskilde, Denmark) and incubated in the presence of 3 µM test compounds for 48 h (37 °C, 90% N2, 5% CO2, and 5% O2). 0.01% DMSO was included in the untreated infected RBC cultures as negative control, since the compounds stock initially was diluted in DMSO and each treatment well also contained 0.01% DMSO. Subsequently, 100 µL RPMI1640 media was removed from each well and a 100 µL volume of the Bright-Glo® substrate solution was added to each well. The resultant cleavage product of the reaction, light, was measured using a […] luminometer (Thermo), to ascertain viable parasites. Untreated cultures were used as negative controls and to calculate the inhibition rate (0% inhibition of parasite growth). Experiments were performed in triplicate and were repeated as a whole at least twice. Blasticidin (Sigma-Aldrich, St. Louis, MO, USA), used for selection of transfected parasites, was included as a positive control on each plate and gave > 90% inhibition of parasite growth at concentration 2 µg/mL. […] For active compounds IC50 values were determined from dose–response curves. Calculation of parasite growth inhibition, of the IC50 values and statistical analysis were carried out using GraphPad Prism Version 6.0b (GraphPad Software, Inc. San Diego, CA).

PfGSK-3 = molecular target: T1, PfGSK-3 (Plasmodium falciparum, UniProt O77344); experiment: biochemical; format: biochemical; settings: for IC50: 6 µM ATP, mean of three determinations, range in brackets, read-out: IC50 [µM], PfGSK-3 (Kinase Glo Plus)
T1 construct: 6xHis; made in house; host or cells: Escherichia coli C41
T1 sequence (O77344 1-440): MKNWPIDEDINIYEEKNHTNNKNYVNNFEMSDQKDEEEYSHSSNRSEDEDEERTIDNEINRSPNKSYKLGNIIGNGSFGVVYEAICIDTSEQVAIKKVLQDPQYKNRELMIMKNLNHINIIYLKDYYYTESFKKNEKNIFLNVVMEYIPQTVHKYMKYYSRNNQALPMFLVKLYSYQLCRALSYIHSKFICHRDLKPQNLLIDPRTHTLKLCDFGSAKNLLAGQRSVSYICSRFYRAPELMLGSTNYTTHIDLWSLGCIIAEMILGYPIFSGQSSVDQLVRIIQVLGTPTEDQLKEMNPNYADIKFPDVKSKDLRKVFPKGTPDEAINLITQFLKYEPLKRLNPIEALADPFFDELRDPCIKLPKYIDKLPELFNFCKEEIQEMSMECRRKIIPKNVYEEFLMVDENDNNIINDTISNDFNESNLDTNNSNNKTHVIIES
Description: PfGSK-3 was cloned into pOPIN F expression vector [41] using ligation independent cloning (InFusion, Takara Clontech). Expression vector was transformed into Escherichia coli C41 and expression of recombinant PfGSK3-6xHis was induced by incubation with 1 mM IPTG at 16 °C overnight.
Kinase activity was measured using Kinase-Glo Plus Luminescent Kinase Assay (Promega). 20 ng recombinant GSK-3 were incubated for 30 min at 30 °C in the presence of 12 μM GS-1 peptide substrate ([…]pSEDEEE, pS stands for phosphorylated serine, Biaffin GmbH & Co KG/proteinkinase.de) and 6 μM ATP (ultra pure, Promega) in a total volume of 5 μL kinase reaction buffer (40 mM Tris/HCl pH 7.5; 20 mM MgCl2; 0.1 mg/mL BSA). Kinase reaction mix was transferred to a solid white 384 well plate (NUNC, Thermo Scientific) and kinase reaction was stopped by adding 5 μL RT Kinase-Glo reagent. After 10 min luminescence was measured in an EnVision multilabel plate reader (Perkin Elmer, integration time 0.5 s/well). […] All samples were normalized to a negative control (reaction without kinase). Data points were plotted into Graphpad Prism, normalized to a DMSO control and IC50 values were calculated using nonlinear regression.

HsGSK-3 = HsGSK-3 (Homo sapiens, UniProt P49841); experiment: Kinase-Glo Plus assay for inhibition of HsGSK-3; format: biochemical; settings: 6 µM ATP; mean of three determinations, range in brackets
Description: Kinase reaction mix was transferred to a solid white 384 well plate (NUNC, Thermo Scientific) and kinase reaction was stopped by adding 5 μL RT Kinase-Glo reagent. After 10 min luminescence was measured in an EnVision multilabel plate reader (Perkin Elmer, integration time 0.5 s/well). […] All samples were normalized to a negative control (reaction without kinase). Data points were plotted into Graphpad Prism, normalized to a DMSO control and IC50 values were calculated using nonlinear regression.

HEK293T cells = experiment: Cytotoxicity assay on HEK293 cells (PrestoBlue viability); format: cell-based, human
Description: HEK293T cells were seeded into a solid black flat bottom 96 well plate (2.5 × 10^4 cells/well) in 200 μL Dulbecco Modified Eagle Medium (DMEM) supplemented with 10% fetal bovine serum and 1% Pen/Strep (final concentration of 100 U/mL Penicillin and 100 μg/mL Streptomycin). Cells were incubated at 37 °C under 5% CO2. After 18 h the supernatant was removed and fresh DMEM containing serial dilutions of compounds was added. Compounds were solubilized in DMSO (final DMSO concentration in HEK293T culture was 0.5%.) Wells containing 0.5% DMSO served as a negative control. Plates were incubated for further 48 h at 37 °C under 5% CO2. To monitor cell viability the supernatant was removed and cells were incubated with 200 μL 10% PrestoBlue (Invitrogen) in PBS at 37 °C. After 30 min fluorescence (λex = 560 nm, λem = 590 nm) was measured in an EnVision multilable plate reader (Perkin Elmer, integration time 0.1 s/well). Data points were plotted into Graphpad Prism, normalized to the DMSO control and IC50 values were calculated using nonlinear regression.

[2] = Kinetic solubility by laser nephelometry; format: physicochemical; settings: kinetic from dmso stock, aqueous phosphate buffer pH 7.4, 1% DMSO, 25 °C, mean ± standard deviation, read-out: S0 pH 7.4, exp (kinetic solubility)
Description: Kinetic solubility indicates the solubility of the most rapidly precipitating form. Kinetic solubilities of 1 and 4h were determined by laser nephelometry using the […] nephelometer (BMG LabTech, Ortenberg, Germany) and F-bottom transparent 96-well plates. The instrument uses red laser light (635 nm, 80% intensity), which passes through the 96-well plate and which is scattered by turbid suspensions. Each compound was measured six times at 25 °C by preparing three independent stock solutions in concentrations of 5 to 10 mM in DMSO. From each stock solution two independent dilution series were prepared. Based on preliminary experiments, dilution concentrations were chosen such that at least five to six concentrations below and above the expected point of precipitation were recorded. To the 96-well plate containing 198 μL aqueous phosphate buffer at pH 7.4, 2 μL of each dilution sample in DMSO was added and shaken for 10 s. at 700 rpm (double orbital). […] The pH was adjusted by adding sulfuric acid. First, the plates were scanned without content to quantify the background, which was later subtracted from the obtained values of each individual well. As blank, 2 μL of neat DMSO was added to the phosphate buffer. Close to the point of precipitation, particle concentration can be assumed to be proportional to the intensity of scattered light. […]

[3] = system: asexual erythrocytic stages of transgenic NF54-luc P. falciparum; parameters: method as in PMID 23214499; settings: prototype compound 1; read-out: IC50 [µM], PfNF54-Luc; cited from earlier work
[4] = from dose-response curves, 48 h

Chain of HsGSK-3 (P49841 whole entry): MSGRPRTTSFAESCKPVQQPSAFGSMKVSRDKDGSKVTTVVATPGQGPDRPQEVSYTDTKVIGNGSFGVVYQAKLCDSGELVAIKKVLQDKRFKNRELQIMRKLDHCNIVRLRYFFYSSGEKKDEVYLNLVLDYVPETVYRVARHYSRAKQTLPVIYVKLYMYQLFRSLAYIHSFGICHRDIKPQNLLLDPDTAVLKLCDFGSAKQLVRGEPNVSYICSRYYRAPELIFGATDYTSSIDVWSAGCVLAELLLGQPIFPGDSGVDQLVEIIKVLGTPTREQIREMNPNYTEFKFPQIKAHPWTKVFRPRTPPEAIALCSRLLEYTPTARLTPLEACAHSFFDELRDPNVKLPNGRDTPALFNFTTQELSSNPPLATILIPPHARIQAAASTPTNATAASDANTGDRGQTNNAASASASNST

SMILES	% inhibition ± SD, PfNF54-Luc at 3 µM ([1]; 48 h)	IC50 [1, 4]	further results
N#Cc1c(N)nc2sc(C(=O)c3cccc(Cl)c3)c(N)c2c1-c1ccc(Cl)cc1Cl [2a]	25.7 ± 3.5%	6.2 µM	–
N#Cc1c(N)nc2sc(C(=O)c3cccc(Cl)c3)c(N)c2c1-c1ccc(F)cc1Cl [2b]	28.1 ± 3.3%	6.1 µM	–
Cc1ccc(-c2c(C#N)c(N)nc3sc(C(=O)c4cccc(Cl)c4)c(N)c23)c(Cl)c1 [2d]	12.4 ± 2.4%	–	–
N#Cc1c(N)nc2sc(C(=O)c3cccc(Cl)c3)c(N)c2c1-c1ccc(O)cc1Cl [2e]	0.2 ± 2.5%	–	–
COc1ccc(-c2c(C#N)c(N)nc3sc(C(=O)c4cccc(Cl)c4)c(N)c23)c(Cl)c1 [3a]	33.2 ± 3.2%	12.2 µM	–
CCOc1ccc(-c2c(C#N)c(N)nc3sc(C(=O)c4cccc(Cl)c4)c(N)c23)c(Cl)c1 [3b]	14.5 ± 1.3%	–	–
N#Cc1c(N)nc2sc(C(=O)c3cccc(Cl)c3)c(N)c2c1-c1ccc(OCc2ccccc2)cc1Cl [3c]	12.8 ± 4.9%	–	–
N#Cc1c(N)nc2sc(C(=O)c3cccc(Cl)c3)c(N)c2c1-c1ccc(OCCO)cc1Cl [3d]	25.6 ± 3.3%	20 µM	–
N#Cc1c(N)nc2sc(C(=O)c3cccc(Cl)c3)c(N)c2c1-c1ccc(OCC(O)CO)cc1Cl (centres unmarked) [3f]	14.7 ± 1.8%	–	–
N#Cc1c(N)nc2sc(C(=O)c3cccc(Cl)c3)c(N)c2c1-c1ccc(OCC(=O)O)cc1Cl [3g]	31.3 ± 1.1%	–	–
CN(C)c1ccc(-c2c(C#N)c(N)nc3sc(C(=O)c4cccc(Cl)c4)c(N)c23)c(Cl)c1 [4a]	29.9 ± 5.6%	5.7 µM	–
N#Cc1c(N)nc2sc(C(=O)c3cccc(Cl)c3)c(N)c2c1-c1ccc(N2CCCC2)cc1Cl [4c]	33.0 ± 2.4%	–	–
N#Cc1c(N)nc2sc(C(=O)c3cccc(Cl)c3)c(N)c2c1-c1ccc(N2CCCCC2)cc1Cl [4d]	39.1 ± 1.1%	5 µM	–
N#Cc1c(N)nc2sc(C(=O)c3cccc(Cl)c3)c(N)c2c1-c1ccc(N2CCOCC2)cc1Cl [4e]	20.2 ± 4.8%	–	–
CN(CCNC(=O)OC(C)(C)C)c1ccc(-c2c(C#N)c(N)nc3sc(C(=O)c4cccc(Cl)c4)c(N)c23)c(Cl)c1 [4f]	67.1 ± 2.7%	2.5 µM	–
CC(C)(C)OC(=O)N1CCN(c2ccc(-c3c(C#N)c(N)nc4sc(C(=O)c5cccc(Cl)c5)c(N)c34)c(Cl)c2)CC1 [4g]	42.1 ± 2.9%	3.8 µM	–
CN(CCN)c1ccc(-c2c(C#N)c(N)nc3sc(C(=O)c4cccc(Cl)c4)c(N)c23)c(Cl)c1.Cl [4i]	8.1 ± 3.3%	–	–
Cl.N#Cc1c(N)nc2sc(C(=O)c3cccc(Cl)c3)c(N)c2c1-c1ccc(N2CCNCC2)cc1Cl [4j]	75.7 ± 1.5%	1.5 µM	–
CCN(CC)c1ccc(-c2c(C#N)c(N)nc3sc(C(=O)c4cccc(Cl)c4)c(N)c23)c(Cl)c1 [(+)4b]	–	–	inhibition at 3 µM ([1]; Plasmodium falciparum, NF54, 48 h, read-out: % inhibition ± SD, PfNF54-Luc at 3 µM): 73 ± 1.2%; IC50 ([1]; Plasmodium falciparum, NF54, 48 h): 1.1 µM; IC50 (PfGSK-3): 39.6 µM; IC50 (HsGSK-3): > 100 µM
CCN(CC)c1ccc(-c2c(C#N)c(N)nc3sc(C(=O)c4cccc(Cl)c4)c(N)c23)c(Cl)c1 [(−)4b]	–	–	IC50 (PfGSK-3): > 100 µM
CN(CC[C@H](N)CC(=O)N[C@H]1C=C[C@H](n2ccc(N)nc2=O)O[C@@H]1C(=O)O)C(=N)N [BS, Blasticidin, reference compound]	99.3 ± 0.7%	–	inhibition of parasite growth (positive control) ([1]; 2 µg/mL, 48 h): > 90%
N#Cc1c(N)nc2sc(C(=O)c3cccc(Cl)c3)c(N)c2c1-c1ccccc1Cl [compound 1]	–	–	SI (selectivity index) = IC50 HEK293T/IC50 PfNF54-Luc (HEK293T cells; HEK293T versus PfNF54-Luc): 6.4; IC50 (HEK293T cells; Homo sapiens, HEK-293T, cell viability, 48 h, mean of six determinations, range in brackets): 35.2 µM; IC50 (PfGSK-3): 0.24 µM; selectivity index plasmodial versus human GSK-3 (PfGSK-3; Kinase Glo Plus assay, PfGSK-3 versus HsGSK-3): 38; IC50 (HsGSK-3): 9.08 µM; solubility kinetic at 10 s [2]: 1.5 ± 0.3 µM (≈ 0.659 µg/mL); IC50 [3]: 5.5 µM
